Source: the supplement of paper PMC10627819

Tests used:
S. pneumoniae D39V [1] = test: fitness (endpoint OD595 vs no drug) (fraction); higher = more growth
In short: (§1)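 Fitness expresses the optical density reached at the stationary-phase transition as a fraction of the robust mean of no-drug control wells. It is capped at 1. Measurements were OD595 every 30 min for 14 h at 37 °C after inoculation of 384-well plates at OD595 0.01 (30 µl, or 55 µl for S. pneumoniae), minus the first reading.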

S. aureus DSM 20231 [2] = test: as above
In short: as §1

S. pneumoniae D39V [3] = test: Bliss interaction score (quartile over a dose matrix) (fitness difference); higher = more antagonism (negative = synergy)
In short: (§2)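 Each OD595 reading at entry into stationary phase was scaled to the robust mean of the untreated wells on its plate, with a ceiling of 1. These ratios define fitness, and single-drug fitness was inferred from combinations. The Bliss score compares observed fitness with the product-based expectation and is reported as quartiles across all replicate types, technical, biological and donor/recipient.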

S. aureus DSM 20231 [4] = test: as above
In short: as §2

B. subtilis 168 [5] = test: as above
In short: as §2

S. aureus Newman = test: as above
In short: as §2

B. subtilis 168 [6] = test: fitness (endpoint OD595 vs no drug) (fraction); higher = more growth
In short: as §1
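For Bliss interaction score (quartile over a dose matrix) in this document: first quartile when negative (synergy) and third quartile when positive (antagonism).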
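For fitness (endpoint OD595 vs no drug) in this document: OD595 on entry to stationary phase over no-drug wells; at most 1.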

CCC[C@@H]1C[C@@H](C(=O)N[C@@H]([C@H]2O[C@H](SC)[C@H](O)[C@@H](O)[C@H]2O)[C@@H](C)O)N(C)C1 [Lincomycin] + CN[C@H](CC(C)C)C(=O)N[C@H]1C(=O)N[C@@H](CC(N)=O)C(=O)N[C@H]2C(=O)N[C@H]3C(=O)N[C@H](C(=O)N[C@H](C(=O)O)c4cc(O)cc(O)c4-c4cc3ccc4O)[C@H](O)c3ccc(c(Cl)c3)Oc3cc2cc(c3O[C@@H]2O[C@H](CO)[C@@H](O)[C@H](O)[C@H]2O[C@H]2C[C@](C)(N)[C@H](O)[C@H](C)O2)Oc2ccc(cc2Cl)[C@H]1O [Vancomycin]
Conditions	fitness
S. aureus DSM 20231 [2], first compound 0.1 µg/mL, partner 0.1875 µg/mL	0.805
S. aureus DSM 20231 [2], first compound 0.1 µg/mL, partner 0.375 µg/mL	0.873
S. aureus DSM 20231 [2], first compound 0.1 µg/mL, partner 0.75 µg/mL	0.922
S. aureus DSM 20231 [2], first compound 0.2 µg/mL, partner 0.1875 µg/mL	0.679
S. aureus DSM 20231 [2], first compound 0.2 µg/mL, partner 0.375 µg/mL	0.701
S. aureus DSM 20231 [2], first compound 0.2 µg/mL, partner 0.75 µg/mL	0.745
S. aureus DSM 20231 [2], first compound 0.4 µg/mL, partner 0.1875 µg/mL	0.346
S. aureus DSM 20231 [2], first compound 0.4 µg/mL, partner 0.375 µg/mL	0.336
S. aureus DSM 20231 [2], first compound 0.4 µg/mL, partner 0.75 µg/mL	0.371
S. pneumoniae D39V [1], first compound 0.2 µg/mL, partner 0.03125 µg/mL	0.706
S. pneumoniae D39V [1], first compound 0.2 µg/mL, partner 0.0625 µg/mL	0.695
S. pneumoniae D39V [1], first compound 0.2 µg/mL, partner 0.125 µg/mL	0.489
S. pneumoniae D39V [1], first compound 0.215 µg/mL, partner 0.125 µg/mL	0.845
S. pneumoniae D39V [1], first compound 0.215 µg/mL, partner 0.25 µg/mL	0.782
S. pneumoniae D39V [1], first compound 0.4 µg/mL, partner 0.03125 µg/mL	0.61
S. pneumoniae D39V [1], first compound 0.4 µg/mL, partner 0.0625 µg/mL	0.604
S. pneumoniae D39V [1], first compound 0.43 µg/mL, partner 0.125 µg/mL	0.792
S. pneumoniae D39V [1], first compound 0.43 µg/mL, partner 0.25 µg/mL	0.699
S. pneumoniae D39V [1], first compound 0.43 µg/mL, partner 0.5 µg/mL	0.248
S. pneumoniae D39V [1], first compound 0.8 µg/mL, partner 0.03125 µg/mL	0.279
S. pneumoniae D39V [1], first compound 0.8 µg/mL, partner 0.125 µg/mL	0.191
S. pneumoniae D39V [1], first compound 0.86 µg/mL, partner 0.125 µg/mL	0.356
S. pneumoniae D39V [1], first compound 0.86 µg/mL, partner 0.25 µg/mL	0.311
S. pneumoniae D39V [1], first compound 0.86 µg/mL, partner 0.5 µg/mL	0.0793

Conditions	Bliss interaction score
B. subtilis 168 [5]	0.0223
S. aureus DSM 20231 [4]	-0.0567
S. aureus Newman	0.0733
S. pneumoniae D39V [3]	0.117

O=C(O[C@@H]1Cc2c(O)cc(O)cc2O[C@@H]1c1cc(O)c(O)c(O)c1)c1cc(O)c(O)c(O)c1 [EGCG] + CC(=O)NC[C@H]1CN(c2ccc(N3CCOCC3)c(F)c2)C(=O)O1 [Linezolid]
fitness
Conditions	first compound 6.25 µg/mL	first compound 12.5 µg/mL	first compound 25 µg/mL	first compound 50 µg/mL
B. subtilis 168 [6], partner 0.125 µg/mL	0.582	0.482	–	–
B. subtilis 168 [6], partner 0.25 µg/mL	–	–	0.0697	–
B. subtilis 168 [6], partner 0.5 µg/mL	0.0716	0.0599	0.0583	–
S. aureus DSM 20231 [2], partner 0.125 µg/mL	–	0.745	0.816	0.708
S. aureus DSM 20231 [2], partner 0.25 µg/mL	–	0.551	0.559	0.563
S. aureus DSM 20231 [2], partner 0.5 µg/mL	–	0.223	0.25	0.159
S. pneumoniae D39V [1], partner 0.105 µg/mL	–	0.735	0.634	0.752
S. pneumoniae D39V [1], partner 0.2 µg/mL	–	0.533	0.517	0.411
S. pneumoniae D39V [1], partner 0.21 µg/mL	–	0.604	0.688	0.64
S. pneumoniae D39V [1], partner 0.4 µg/mL	–	0.283	0.249	0.218
S. pneumoniae D39V [1], partner 0.42 µg/mL	–	0.505	–	0.498
S. pneumoniae D39V [1], partner 0.8 µg/mL	–	0.12	0.0783	0.133

fitness, one replicate
Conditions	first compound 6.25 µg/mL	first compound 12.5 µg/mL	first compound 25 µg/mL	first compound 50 µg/mL
B. subtilis 168 [6], partner 0.0625 µg/mL	0.854	0.61	0.286	–
S. aureus DSM 20231 [2], partner 1 µg/mL	–	0.0545	0.076	0.0554

Conditions	Bliss interaction score
B. subtilis 168 [5]	0.0875
S. aureus DSM 20231 [4]	0.0748
S. aureus Newman	0.0955
S. pneumoniae D39V [3]	-0.1

CCC[C@@H]1C[C@@H](C(=O)N[C@@H]([C@H]2O[C@H](SC)[C@H](O)[C@@H](O)[C@H]2O)[C@@H](C)O)N(C)C1 [Lincomycin] + COc1c(N2C[C@@H]3CCCN[C@@H]3C2)c(F)cc2c(=O)c(C(=O)O)cn(C3CC3)c12 [Moxifloxacin]
Conditions	fitness
B. subtilis 168 [6], first compound 0.1 µg/mL, partner 2 µg/mL	0.0333
B. subtilis 168 [6], first compound 0.1 µg/mL, partner 4 µg/mL	0.0228
B. subtilis 168 [6], first compound 0.1 µg/mL, partner 8 µg/mL	0.0229
B. subtilis 168 [6], first compound 0.2 µg/mL, partner 2 µg/mL	0.0297
B. subtilis 168 [6], first compound 0.2 µg/mL, partner 4 µg/mL	0.0322
B. subtilis 168 [6], first compound 0.2 µg/mL, partner 8 µg/mL	0.0239
B. subtilis 168 [6], first compound 0.4 µg/mL, partner 0.0312 µg/mL	0.0344
B. subtilis 168 [6], first compound 0.4 µg/mL, partner 0.0625 µg/mL	0.036
B. subtilis 168 [6], first compound 0.4 µg/mL, partner 0.125 µg/mL	0.0478
B. subtilis 168 [6], first compound 0.4 µg/mL, partner 2 µg/mL	0.0261
B. subtilis 168 [6], first compound 0.4 µg/mL, partner 4 µg/mL	0.0257
B. subtilis 168 [6], first compound 0.4 µg/mL, partner 8 µg/mL	0.0306
B. subtilis 168 [6], first compound 0.8 µg/mL, partner 0.0312 µg/mL	0.0429
B. subtilis 168 [6], first compound 0.8 µg/mL, partner 0.0625 µg/mL	0.049
B. subtilis 168 [6], first compound 0.8 µg/mL, partner 0.125 µg/mL	0.0451
B. subtilis 168 [6], first compound 1.6 µg/mL, partner 0.0312 µg/mL	0.0535
B. subtilis 168 [6], first compound 1.6 µg/mL, partner 0.0625 µg/mL	0.0507
B. subtilis 168 [6], first compound 1.6 µg/mL, partner 0.125 µg/mL	0.0559
S. aureus DSM 20231 [2], first compound 0.1 µg/mL, partner 0.0075 µg/mL	0.823
S. aureus DSM 20231 [2], first compound 0.1 µg/mL, partner 0.015 µg/mL	0.765
S. aureus DSM 20231 [2], first compound 0.1 µg/mL, partner 0.03 µg/mL	0.671
S. aureus DSM 20231 [2], first compound 0.2 µg/mL, partner 0.0075 µg/mL	0.737
S. aureus DSM 20231 [2], first compound 0.2 µg/mL, partner 0.015 µg/mL	0.715
S. aureus DSM 20231 [2], first compound 0.2 µg/mL, partner 0.03 µg/mL	0.689
S. aureus DSM 20231 [2], first compound 0.4 µg/mL, partner 0.0075 µg/mL	0.301
S. aureus DSM 20231 [2], first compound 0.4 µg/mL, partner 0.015 µg/mL	0.278
S. aureus DSM 20231 [2], first compound 0.4 µg/mL, partner 0.03 µg/mL	0.359
S. pneumoniae D39V [1], first compound 0.2 µg/mL, partner 0.005 µg/mL	0.749
S. pneumoniae D39V [1], first compound 0.2 µg/mL, partner 0.01 µg/mL	0.829
S. pneumoniae D39V [1], first compound 0.2 µg/mL, partner 0.02 µg/mL	0.757
S. pneumoniae D39V [1], first compound 0.215 µg/mL, partner 0.0037 µg/mL	0.742
S. pneumoniae D39V [1], first compound 0.215 µg/mL, partner 0.0075 µg/mL	0.769
S. pneumoniae D39V [1], first compound 0.215 µg/mL, partner 0.015 µg/mL	0.751
S. pneumoniae D39V [1], first compound 0.4 µg/mL, partner 0.005 µg/mL	0.675
S. pneumoniae D39V [1], first compound 0.4 µg/mL, partner 0.01 µg/mL	0.704
S. pneumoniae D39V [1], first compound 0.4 µg/mL, partner 0.02 µg/mL	0.653
S. pneumoniae D39V [1], first compound 0.43 µg/mL, partner 0.0037 µg/mL	0.629
S. pneumoniae D39V [1], first compound 0.43 µg/mL, partner 0.0075 µg/mL	0.651
S. pneumoniae D39V [1], first compound 0.43 µg/mL, partner 0.015 µg/mL	0.677
S. pneumoniae D39V [1], first compound 0.86 µg/mL, partner 0.0037 µg/mL	0.34
S. pneumoniae D39V [1], first compound 0.86 µg/mL, partner 0.0075 µg/mL	0.339
S. pneumoniae D39V [1], first compound 0.86 µg/mL, partner 0.015 µg/mL	0.297

fitness, one replicate
Conditions	first compound 0.1 µg/mL	first compound 0.2 µg/mL	first compound 0.4 µg/mL
B. subtilis 168 [6], partner 0.0312 µg/mL	0.0564	0.039	–
B. subtilis 168 [6], partner 0.0625 µg/mL	0.0916	0.06	–
B. subtilis 168 [6], partner 0.125 µg/mL	0.0846	0.0751	–
S. aureus DSM 20231 [2], partner 0.06 µg/mL	0.661	0.677	0.562
S. aureus DSM 20231 [2], partner 0.12 µg/mL	0.498	0.527	0.448

Conditions	Bliss interaction score
B. subtilis 168 [5]	-0.0143
S. aureus DSM 20231 [4]	0.124
S. aureus Newman	0.0565
S. pneumoniae D39V [3]	0.0862
